Test results published in US20240173333A1, “Treating Alagille Syndrome (ALGS)” (priority 2022, published 2024).
Like-named read-outs stand apart in the source and are kept apart here.

Tests used:
[1] = Water content and water uptake of crystal modification 1 with relative humidity; type: physicochemical
From the text: Crystal modification 1 contains void volumes that are capable of containing up to about 2 moles of water associated with the crystal per mole of odevixibat, depending on the relative humidity. This form is therefore formally a channel hydrate. At about 30% relative humidity, however, crystal modification 1 contains a substantially stoichiometric amount of about 1.5 moles of water per mole of organic compound and is thus a sesquihydrate. The substantially stoichiometric amount of water is considered advantageous, as the water content of the crystals remains substantially constant even with humidity changes within the normal relative humidity range of about 30% to about 70% RH.
Whereas crystal modification 1 is a sesquihydrate containing about 3.5% (w/w) water at about 30% relative humidity (based on the total crystal weight), it has been observed that the crystal can take up an additional 1.5% (w/w) water when the humidity is increased up to 95% RH. The sorption and desorption of this additional water is fully reversible. The additional water may be adsorbed on the surface or may further fill the channels of the structure. […]

patients with ALGS = conditions: cited from earlier work

Q: Which results are given for `CCCCC1(CCCC)CN(c2ccccc2)c2cc(SC)c(OCC(=O)N[C@@H](C(=O)N[C@@H](CC)C(=O)O)c3ccc(O)cc3)cc2S(=O)(=O)N1` [crystal modification 1]?
A: water content (based on the total crystal weight) ([1]; about 30% relative humidity): about 3.5 % (w/w); additional water taken up ([1]; humidity increased up to 95% RH, fully reversible): 1.5 % (w/w)

Q: Which transaminase levels (patients with ALGS; patients with ALGS) does the source give for `CCCCC1(CCCC)CS(=O)(=O)c2ccc(N(C)C)cc2[C@@H](c2ccc(OCc3ccc(C[N+]45CCN(CC4)CC5)cc3)cc2)[C@H]1O` [maralixibat] here?
A: Elevations in transaminase levels have been reported

Q: For cholestyramine, which transaminase levels (patients with ALGS; human, in vivo) is on record?
A: Elevations in transaminase levels have been reported
